Results on 50 compounds are retold here after patent US6608082B1, “Treatment of erectile dysfunction using isoquinoline compound melanocortin receptor ligands” (Lion Bioscience AG, priority 1998, dated 2003).

pIC50: −log10 of the molar value. Where two headings read alike, the source gives them in different places.

Experiment [1] deals with T1, MCR-1 (Homo sapiens, UniProt Q01726).
T1 construct: expressed in transfected cells; host or cells: HEK 293
As to the kind of experiment: Melanocortin receptor binding assay, competition with 125I-HP 467, HEK 293 cells expressing hMCR-1. The settings on record: for pIC50: read-out: MC-1 IC50. The gist of the method: (§1)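 Test compounds compete on intact HEK 293 cells carrying hMCR-1 (2×10^4 per tube) or hMCR-4 (4×10^3 per tube), suspended in PBS, 10% calf serum, 1 mM CaCl2.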

The target in experiment [2] is T2, MCR-4 (Homo sapiens, UniProt P32245).
T2 construct: expressed in transfected cells; host or cells: HEK 293
T2 sequence (P32245 whole entry): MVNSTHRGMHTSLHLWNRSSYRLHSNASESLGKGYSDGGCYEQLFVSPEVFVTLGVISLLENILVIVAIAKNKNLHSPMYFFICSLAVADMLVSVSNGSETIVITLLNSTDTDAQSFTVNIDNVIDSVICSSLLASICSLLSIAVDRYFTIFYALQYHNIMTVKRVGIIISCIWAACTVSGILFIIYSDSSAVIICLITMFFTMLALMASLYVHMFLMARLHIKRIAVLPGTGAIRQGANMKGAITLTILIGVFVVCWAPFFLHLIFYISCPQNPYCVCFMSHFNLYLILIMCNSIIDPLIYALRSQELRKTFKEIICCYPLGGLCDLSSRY
As to the kind of experiment: Melanocortin receptor binding assay, competition with 125I-HP 467, HEK 293 cells expressing hMCR-4. To be noted: inhibition of binding of 125I-HP 467, HEK 293 cells expressing MCR-4, read-out: MC-4 IC50. The gist of the method:
as §1

[3] abbreviates: inhibition of binding of 125I-HP 467, HEK 293 cells expressing MCR-1.
The mark [4] stands for this setting: inhibition of binding of 125I-HP 467, HEK 293 cells expressing MCR-1, TRG 2414 library.

T1 sequence (Q01726 whole entry): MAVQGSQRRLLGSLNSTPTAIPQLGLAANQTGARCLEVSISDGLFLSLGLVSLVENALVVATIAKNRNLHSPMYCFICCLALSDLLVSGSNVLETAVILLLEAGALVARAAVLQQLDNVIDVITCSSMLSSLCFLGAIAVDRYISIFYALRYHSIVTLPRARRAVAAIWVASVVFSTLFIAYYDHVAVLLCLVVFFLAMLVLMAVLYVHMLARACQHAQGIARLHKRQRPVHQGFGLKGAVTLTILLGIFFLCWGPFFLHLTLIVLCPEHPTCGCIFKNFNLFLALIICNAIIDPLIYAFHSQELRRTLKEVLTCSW

A word on the pIC50: it is −log10 of the IC50, conventionally taken in molar units. With `CCNc1ccc(C2C(CNCCc3ccccc3)c3ccccc3CN2CCCC(CN)NCc2ccc(Cl)cc2)cc1` (centres unmarked) [TRG 2411-159], the pIC50 in experiment [1] (setting [3]) is 7.00; in experiment [2], 6.46.
As to `CCNc1ccc(C2C(CNCCc3ccccc3)c3ccccc3CN2CCCC(CN)NCc2ccc(OC)cc2)cc1` (centres unmarked) [TRG 2411-160], the negative logarithm of the IC50 (pIC50) in experiment [1] (setting [3]) was 7.05; in experiment [2], 6.29.
In the case of `CCNc1ccc(C2C(CNCCc3ccccc3)c3ccccc3CN2CCCC(CN)NCCc2ccc3ccccc3c2)cc1` (centres unmarked) [TRG 2411-161], the pIC50 was 6.80 in experiment [1] (setting [3]) and 6.19 in experiment [2].
Taken in the same sequence, the figures for `CCNc1ccc(C2C(CNCCc3ccccc3)c3ccccc3CN2CCCC(CN)NCCC2CCCCC2)cc1` (centres unmarked) [TRG 2411-162] were 6.96 and 5.91.
Taken in the same sequence, the figures for `CCNc1ccc(C2C(CNC3CCCCC3)c3ccccc3CN2CCCC(CN)NCC)cc1` (centres unmarked) [TRG 2411-164] were 6.74 and 5.40.
For `CCNc1ccc(C2C(CNC3CCCCC3)c3ccccc3CN2CCCC(CN)NCCc2ccc(Br)cc2)cc1` (centres unmarked) [TRG 2411-167] the same measures were 6.43 and 5.95.
Take `CCNc1ccc(C2C(CNC3CCCCC3)c3ccccc3CN2CCCC(CN)NCc2ccccc2)cc1` (centres unmarked) [TRG 2411-169]: the pIC50 in experiment [1] (setting [3]) was 6.66; in experiment [2] it was 6.36.
For `CCNc1ccc(C2C(CNC3CCCCC3)c3ccccc3CN2CCCC(CN)NCCC2CCCCC2)cc1` (centres unmarked) [TRG 2411-173] the same measures were 6.85 and 5.80.
Taken in the same sequence, the figures for `CCNc1ccc(C2C(CN)c3ccccc3CN2CCCC(CN)NCCc2ccccc2)cc1` (centres unmarked) [TRG 2411-179] were 7.15 and 5.84.
Taken in the same sequence, the figures for `CCNc1ccc(C2C(CN)c3ccccc3CN2CCCC(CN)NCCc2ccc(Br)cc2)cc1` (centres unmarked) [TRG 2411-180] were 6.92 and 5.97.
For `CCNc1ccc(C2C(CN)c3ccccc3CN2CCCC(CN)NCc2ccc(OC)cc2)cc1` (centres unmarked) [TRG 2411-184], the figures for the negative logarithm of the IC50 (pIC50) in experiment [1] (setting [3]) and in experiment [2] were 7.05 and 5.79, respectively.
Regarding `CCNc1ccc(C2C(CN)c3ccccc3CN2CCCC(CN)NCCC2CCCCC2)cc1` (centres unmarked) [TRG 2411-186], in experiment [1] (binding to MC receptors, Table 1), the “effectiveness as MC receptor ligand” value is “particularly effective MC receptor ligands”. Besides, the negative-log IC50 (pIC50) was 7.52 in experiment [1] (setting [3]) and 6.24 in experiment [2].
In the case of `CCCCNc1ccc(C2C(CNCCc3ccccc3)c3ccccc3CN2CCCC(CN)NCC)cc1` (centres unmarked) [TRG 2411-190], the pIC50 in experiment [1] (setting [3]) was 6.72; in experiment [2] it was 6.68.
Taken in the same sequence, the figures for `CCCCNc1ccc(C2C(CNCCc3ccccc3)c3ccccc3CN2CCCC(CN)NCCCC)cc1` (centres unmarked) [TRG 2411-191] were 6.92 and 6.28.
For `CCCCNc1ccc(C2C(CNCCc3ccccc3)c3ccccc3CN2CCCC(CN)N2CCCC2)cc1` (centres unmarked) [TRG 2411-192] the same measures were 7.15 and 6.06.
Regarding `CCCCNc1ccc(C2C(CNCCc3ccccc3)c3ccccc3CN2CCCC(CN)NCCc2ccccc2)cc1` (centres unmarked) [TRG 2411-193], the negative-log IC50 (pIC50) is 6.82 in experiment [1] (setting [3]) and 5.91 in experiment [2].
Taken in the same sequence, the figures for `CCCCNc1ccc(C2C(CNCCc3ccccc3)c3ccccc3CN2CCCC(CN)NCCc2ccc(Br)cc2)cc1` (centres unmarked) [TRG 2411-194] were 6.62 and 5.87.
Taken in the same sequence, the figures for `CCCCNc1ccc(C2C(CNCCc3ccccc3)c3ccccc3CN2CCCC(CN)NCCc2ccc(OC)cc2)cc1` (centres unmarked) [TRG 2411-195] were 6.80 and 5.84.
Taken in the same sequence, the figures for `CCCCNc1ccc(C2C(CNCCc3ccccc3)c3ccccc3CN2CCCC(CN)NCc2ccccc2)cc1` (centres unmarked) [TRG 2411-196] were 6.92 and 5.98.
As for `CCCCNc1ccc(C2C(CNCCc3ccccc3)c3ccccc3CN2CCCC(CN)NCCC2CCCCC2)cc1` (centres unmarked) [TRG 2411-200], the pIC50 in experiment [1] (setting [3]) is 6.89; in experiment [2], 5.87.
Taken in the same sequence, the figures for `CCCCNc1ccc(C2C(CNC3CCCCC3)c3ccccc3CN2CCCC(CN)NCCc2ccc(Br)cc2)cc1` (centres unmarked) [TRG 2411-208] were 6.33 and 6.07.
Taken in the same sequence, the figures for `CCCCNc1ccc(C2C(CNC3CCCCC3)c3ccccc3CN2CCCC(CN)NCCc2ccc(OC)cc2)cc1` (centres unmarked) [TRG 2411-209] were 6.46 and 5.88.
For `CCCCNc1ccc(C2C(CNC3CCCCC3)c3ccccc3CN2CCCC(CN)NCc2ccc(OC)cc2)cc1` (centres unmarked) [TRG 2411-212] the same measures were 7.00 and 5.71.
For `CCCCNc1ccc(C2C(CNC3CCCCC3)c3ccccc3CN2CCCC(CN)NCCc2ccc3ccccc3c2)cc1` (centres unmarked) [TRG 2411-213], the negative logarithm of the IC50 (pIC50) is 6.66 in experiment [1] (setting [3]) and 5.71 in experiment [2].
Taken in the same sequence, the figures for `CCCCNc1ccc(C2C(CN)c3ccccc3CN2CCCC(CN)NCC)cc1` (centres unmarked) [TRG 2411-218] were 7.15 and 5.02.
For `CCCCNc1ccc(C2C(CN)c3ccccc3CN2CCCC(CN)NCCCC)cc1` (centres unmarked) [TRG 2411-219] the same measures were 7.00 and 5.53.
Taken in the same sequence, the figures for `CCOc1ccc(C2C(CNCCc3ccccc3)c3ccccc3CN2CCCCC(CN)NC)cc1` (centres unmarked) [TRG 2412-4] were 6.51 and 6.49.
`CCCCCNc1ccc(C2C(CNCCc3ccccc3)c3ccccc3CN2CCCC(CN)NC)cc1` (centres unmarked) [TRG 2412-16]: the pIC50 in experiment [1] (setting [3]) is 7.05; in experiment [2] it was 5.83.
Take `CCCCCNc1ccc(C2C(CNCCc3ccccc3)c3ccccc3CN2CCCC(CN)NCCc2ccccc2)cc1` (centres unmarked) [TRG 2412-17]: the pIC50 in experiment [1] (setting [3]) was 6.57; in experiment [2] it was 5.94.
For `CCOc1ccc(C2C(CNCCc3ccccc3)c3ccccc3CN2CCCC(CN)NCc2ccccc2)cc1` (centres unmarked) [TRG 2412-21] the same measures were 6.77 and 6.64.
Taken in the same sequence, the figures for `CCCCOc1ccc(C2C(CNCCc3ccccc3)c3ccccc3CN2CCCC(CN)NC)cc1` (centres unmarked) [TRG 2412-25] were 6.80 and 5.97.
Consider `CCCCCc1ccc(C2C(CNCCc3ccccc3)c3ccccc3CN2CCCC(CN)NCc2ccccc2)cc1` (centres unmarked) [TRG 2412-30], for which the pIC50 is 6.21 in experiment [1] (setting [3]) and 5.97 in experiment [2].
Taken in the same sequence, the figures for `CCNc1ccc(C2C(CNCCc3ccccc3)c3ccccc3CN2CCCC(CN)NCCc2ccccc2)cc1` (centres unmarked) [TRG 2413-9] were 6.59 and 5.87.
Taken in the same sequence, the figures for `CNC(CN)CCCN1Cc2ccccc2C(CNCCc2ccccc2)C1c1ccc([N+](=O)[O-])cc1` (centres unmarked) [TRG 2413-16] were 5.90 and 6.40.
For the compound `COc1ccccc1CCNCC1c2ccccc2CN(CCCCC(CN)NCCc2ccccc2)C1c1ccc(Cl)cc1Cl` (centres unmarked) [TRG 2414-10], the pIC50 in experiment [1] (setting [4]) is 5.53; in experiment [2] (TRG 2414 library), 5.31.
Taken in the same sequence, the figures for `COc1ccccc1CCNCC1c2ccccc2CN(CCCCC(CN)NCC(C)c2ccc(CC(C)C)cc2)C1c1ccc(Cl)cc1Cl` (centres unmarked) [TRG 2414-12] were 4.93 and 4.46.
For `NCC(N)CCCCN1Cc2ccccc2C(CNCCc2cccc(Cl)c2)C1c1ccc(Cl)cc1Cl` (centres unmarked) [TRG 2414-13] the same measures were 5.66 and 5.93.
Taken in the same sequence, the figures for `NCC(CCCCN1Cc2ccccc2C(CNCCc2cccc(Cl)c2)C1c1ccc(Cl)cc1Cl)NCCc1ccccc1` (centres unmarked) [TRG 2414-14] were 5.49 and 5.53.
`NC[C@H](CCCCN1Cc2ccccc2C(CNCCc2cccc(Cl)c2)C1c1ccc(Cl)cc1Cl)NCc1ccccc1` (some centres unmarked) [TRG 2414-15]: the pIC50 was 5.19 in experiment [1] (setting [4]) and 5.16 in experiment [2] (TRG 2414 library).
Regarding `CC(C)Cc1ccc(C(C)CNC(CN)CCCCN2Cc3ccccc3C(CNCCc3cccc(Cl)c3)C2c2ccc(Cl)cc2Cl)cc1` (centres unmarked) [TRG 2414-16], in experiment [1] (setting [4]), the “MC-1 IC50” value was “no fit”. Moreover, the pIC50 in experiment [2] (TRG 2414 library) is 4.48.
Regarding `COc1cccc(CNCC2c3ccccc3CN(CCCCC(N)CN)C2c2ccc(Cl)cc2Cl)c1` (centres unmarked) [TRG 2414-17], the negative logarithm of the IC50 (pIC50) was 5.51 in experiment [1] (setting [4]) and 5.79 in experiment [2] (TRG 2414 library).
For `COc1cccc(CNCC2c3ccccc3CN(CCCCC(CN)NCCc3ccccc3)C2c2ccc(Cl)cc2Cl)c1` (centres unmarked) [TRG 2414-18] the same measures were 5.30 and 5.09.
For `COc1cccc(CNCC2c3ccccc3CN(CCCCC(CN)NCc3ccccc3)C2c2ccc(Cl)cc2Cl)c1` (centres unmarked) [TRG 2414-19] the same measures were 5.48 and 5.14.
For `COc1cccc(CNCC2c3ccccc3CN(CCCCC(CN)NCC(C)c3ccc(CC(C)C)cc3)C2c2ccc(Cl)cc2Cl)c1` (centres unmarked) [TRG 2414-20] the same measures were 4.56 and 4.42.
Take `COc1ccc(CNCC2c3ccccc3CN(CCCCC(N)CN)C2c2ccc(Cl)cc2Cl)cc1` (centres unmarked) [TRG 2414-21]: the values for the pIC50 in experiment [1] (setting [4]) and in experiment [2] (TRG 2414 library) were 5.95 and 5.80, respectively.
Taken in the same sequence, the figures for `COc1ccc(CNCC2c3ccccc3CN(CCCCC(CN)NCCc3ccccc3)C2c2ccc(Cl)cc2Cl)cc1` (centres unmarked) [TRG 2414-22] were 5.45 and 5.30.
Taken in the same sequence, the figures for `COc1ccc(CNCC2c3ccccc3CN(CCCCC(CN)NCc3ccccc3)C2c2ccc(Cl)cc2Cl)cc1` (centres unmarked) [TRG 2414-23] were 5.50 and 5.21.
Taken in the same sequence, the figures for `COc1ccc(CNCC2c3ccccc3CN(CCCCC(CN)NCC(C)c3ccc(CC(C)C)cc3)C2c2ccc(Cl)cc2Cl)cc1` (centres unmarked) [TRG 2414-24] were 4.59 and 4.43.
On to `COc1ccc(CCNCC2c3ccccc3CN(CCCC[C@H](N)CN)C2c2ccc(Cl)cc2Cl)cc1` (some centres unmarked) [TRG 2414-25], for which the values for the pIC50 in experiment [1] (setting [4]) and in experiment [2] (TRG 2414 library) were 5.86 and 6.28, respectively.
Taken in the same sequence, the figures for `COc1ccc(CCNCC2c3ccccc3CN(CCCCC(CN)NCc3ccccc3)C2c2ccc(Cl)cc2Cl)cc1` (centres unmarked) [TRG 2414-27] were 5.58 and 5.59.
